Laboratory results published in patent publication US20080009418A1, “Selective Inhibitors” (Alchemia LTD., priority 2004, published 2008).

Legend:
Human κ-Opioid (KOP) = molecular target: T1, Human κ-Opioid (KOP) (Homo sapiens, UniProt P41145); assay: Radioligand binding, human κ-opioid (KOP) membranes, filtration, [3H]-Diprenorphine; settings: compound at 10 μM; for A2 radioligand binding inhibition: human κ-opioid (KOP) membranes; for A2: inhibition of radioligand binding: filtration
T1 construct: purchased Perkin Elmer Biosignal
Summary of the method: (§1)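 Membranes from cloned human receptors were incubated with compound and radioligand for 1 hour at room temperature. Bound ligand was collected on 0.3% PEI-soaked filters, washed with cold 50 mM Tris-HCl pH 7.4, and counted by scintillation. Percent inhibition was computed against DMSO totals and reference-ligand nonspecific wells.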

Mouse urotensin (mUR2) = molecular target: T2, Mouse urotensin (mUR2) (Mus musculus, UniProt Q8VIH9); assay: Radioligand binding, mouse urotensin mUR2 membranes, FlashPlate, [125I]-Urotensin II; settings: compound at 10 μM; for A11 radioligand binding inhibition: mouse urotensin mUR2 membranes; for A11: inhibition of radioligand binding: FlashPlate
T2 construct: purchased Perkin Elmer Biosignal
T2 sequence (Q8VIH9 1-385): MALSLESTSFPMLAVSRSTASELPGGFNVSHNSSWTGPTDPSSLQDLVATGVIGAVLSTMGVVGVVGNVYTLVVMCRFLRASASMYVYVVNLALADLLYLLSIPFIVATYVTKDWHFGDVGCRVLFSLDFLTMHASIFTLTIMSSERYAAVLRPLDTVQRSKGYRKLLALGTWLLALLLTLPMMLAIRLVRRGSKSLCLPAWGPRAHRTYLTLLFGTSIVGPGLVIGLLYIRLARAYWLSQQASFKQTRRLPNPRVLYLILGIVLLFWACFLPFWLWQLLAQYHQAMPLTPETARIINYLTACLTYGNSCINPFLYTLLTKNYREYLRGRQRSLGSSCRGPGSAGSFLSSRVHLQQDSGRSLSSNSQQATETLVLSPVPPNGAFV
Summary of the method: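 Cloned mouse urotensin (mUR2) receptor membranes from Perkin Elmer Biosignal were immobilized in FlashPlate microplates using a proprietary coating. Each well got 19.5 μl buffer, then 0.5 μl of DMSO, reference ligand, or compound. Adding 5 μl of [125I]-Urotensin II, diluted to 5× final concentration in binding buffer, started binding. Plates were sealed with TopSeal-A and incubated 1 hour at room temperature in the dark. Wells were counted for 30 seconds each on a TopCount after a 60-second delay, and percentage inhibition was calculated.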

Human opioid (ORL1) = molecular target: T3, Human opioid (ORL1) (Homo sapiens, UniProt P41146); assay: Radioligand binding, human opioid ORL1 membranes, FlashPlate, [125I]-Nociceptin; settings: compound at 10 μM; for A10 radioligand binding inhibition: human ORL1 membranes; for A10: inhibition of radioligand binding: FlashPlate
T3 construct: purchased Perkin Elmer Biosignal
Summary of the method: (§2)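 Cloned human receptor membranes were coated onto FlashPlate wells and incubated with radioligand and compound (added from a 0.5 mM DMSO daughter plate) for 1 hour at room temperature in the dark. Scintillation counting gave percent inhibition, with DMSO defining total and reference ligand defining non-specific binding.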

Human δ-opioid (DOP) = molecular target: T4, Human δ-opioid (DOP) (Homo sapiens, UniProt P41143); assay: Radioligand binding, human δ-opioid (DOP) membranes, FlashPlate, [3H]-Bremazocine; settings: compound at 10 μM; for A1 radioligand binding inhibition: human δ-opioid (DOP) membranes; for A1: inhibition of radioligand binding: FlashPlate
T4 construct: purchased Perkin Elmer Biosignal
Summary of the method: as §2

Human Melanocortin (MC3) = molecular target: T5, Human Melanocortin (MC3) (Homo sapiens, UniProt P41968); assay: Radioligand binding, human melanocortin MC3 membranes, FlashPlate, [125I]-NDP-αMSH; settings: compound at 10 μM; for A3 radioligand binding inhibition: human melanocortin MC3 membranes; for A3: inhibition of radioligand binding: FlashPlate
T5 construct: purchased Perkin Elmer Biosignal
Summary of the method: as §2

[1] = molecular target: T6, Human melanin-concentrating hormone (MCH1) (Homo sapiens, UniProt Q99705); assay: Radioligand binding, human melanin-concentrating hormone MCH1 membranes, FlashPlate, [125I]-S36057; settings: compound at 10 μM; for A6 radioligand binding inhibition: human MCH1 membranes; for A6: inhibition of radioligand binding: [125I]-S36057, FlashPlate
T6 construct: purchased Perkin Elmer Biosignal
Summary of the method: as §2

Human μ-opioid (MOP) = molecular target: T7, Human μ-opioid (MOP) (Homo sapiens, UniProt P35372); assay: Radioligand binding, human μ-opioid (MOP) membranes, FlashPlate, [3H]-Naloxone; settings: compound at 10 μM; for A7 radioligand binding inhibition: human μ-opioid (MOP) membranes; for A7: inhibition of radioligand binding: FlashPlate
T7 construct: purchased Perkin Elmer Biosignal
Summary of the method: as §2

[2] = molecular target: T8, Human neuropeptide Y (NPY-Y1) (Homo sapiens, UniProt P25929); assay: Radioligand binding, human neuropeptide Y NPY-Y1 membranes, FlashPlate, [125I]-PYY; settings: compound at 10 μM; for A9 radioligand binding inhibition: human NPY-Y1 membranes; for A9: inhibition of radioligand binding: FlashPlate
T8 construct: purchased Perkin Elmer Biosignal
T8 sequence (P25929 1-384): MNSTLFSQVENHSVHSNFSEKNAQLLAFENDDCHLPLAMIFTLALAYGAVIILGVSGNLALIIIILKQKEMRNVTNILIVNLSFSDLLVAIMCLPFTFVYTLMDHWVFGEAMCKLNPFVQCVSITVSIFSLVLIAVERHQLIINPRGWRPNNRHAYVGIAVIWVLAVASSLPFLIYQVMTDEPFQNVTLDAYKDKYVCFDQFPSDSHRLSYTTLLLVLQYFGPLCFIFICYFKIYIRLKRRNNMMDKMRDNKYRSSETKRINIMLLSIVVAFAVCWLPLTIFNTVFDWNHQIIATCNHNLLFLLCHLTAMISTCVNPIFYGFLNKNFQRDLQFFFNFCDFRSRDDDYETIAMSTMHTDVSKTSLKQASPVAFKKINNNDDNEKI
Summary of the method: as §2

Human Melanocortin (MC4) = molecular target: T9, Human Melanocortin (MC4) (Homo sapiens, UniProt P32245); assay: Radioligand binding, human melanocortin MC4 membranes, FlashPlate, [125I]-NDP-αMSH; settings: compound at 10 μM; for A4 radioligand binding inhibition: human melanocortin MC4 membranes; for A4: inhibition of radioligand binding: FlashPlate
T9 construct: purchased Perkin Elmer Biosignal
Summary of the method: as §2

Human melanocortin (MC5) = molecular target: T10, Human melanocortin (MC5) (Homo sapiens, UniProt P33032); assay: Radioligand binding, human melanocortin MC5 membranes, FlashPlate, [125I]-NDP-αMSH; settings: compound at 10 μM; for A5 radioligand binding inhibition: human melanocortin MC5 membranes; for A5: inhibition of radioligand binding: FlashPlate
T10 construct: purchased Perkin Elmer Biosignal
Summary of the method: as §2

Human neurokinin (NK1) = molecular target: T11, Human neurokinin (NK1) (Homo sapiens, UniProt P25103); assay: Radioligand binding, human neurokinin NK1 membranes, filtration, [125I]-Substance P; settings: compound at 10 μM; for A8 radioligand binding inhibition: human neurokinin NK1 membranes; for A8: inhibition of radioligand binding: filtration
T11 construct: purchased Perkin Elmer Biosignal
Summary of the method: as §1

T1 sequence (P41145 whole entry): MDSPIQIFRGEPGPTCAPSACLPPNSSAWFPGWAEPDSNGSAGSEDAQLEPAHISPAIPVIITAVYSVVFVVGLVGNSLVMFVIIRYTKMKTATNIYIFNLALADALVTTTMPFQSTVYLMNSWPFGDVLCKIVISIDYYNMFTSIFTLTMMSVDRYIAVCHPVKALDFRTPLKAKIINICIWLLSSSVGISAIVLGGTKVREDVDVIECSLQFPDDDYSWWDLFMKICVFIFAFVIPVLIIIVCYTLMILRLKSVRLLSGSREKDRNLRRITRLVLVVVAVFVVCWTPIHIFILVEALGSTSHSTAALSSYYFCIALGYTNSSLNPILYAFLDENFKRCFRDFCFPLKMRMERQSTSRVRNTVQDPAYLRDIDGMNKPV
T4 sequence (P41143 whole entry): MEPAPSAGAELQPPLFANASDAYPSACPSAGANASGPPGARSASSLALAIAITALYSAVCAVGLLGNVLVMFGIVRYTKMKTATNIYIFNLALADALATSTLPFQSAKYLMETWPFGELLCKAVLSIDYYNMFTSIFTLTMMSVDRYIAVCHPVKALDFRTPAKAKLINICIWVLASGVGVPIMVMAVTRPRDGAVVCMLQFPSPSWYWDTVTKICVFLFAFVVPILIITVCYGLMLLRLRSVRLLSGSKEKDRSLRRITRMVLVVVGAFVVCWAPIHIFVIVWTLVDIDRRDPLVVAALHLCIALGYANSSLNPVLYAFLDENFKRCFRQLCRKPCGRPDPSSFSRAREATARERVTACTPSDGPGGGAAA
T7 sequence (P35372 whole entry): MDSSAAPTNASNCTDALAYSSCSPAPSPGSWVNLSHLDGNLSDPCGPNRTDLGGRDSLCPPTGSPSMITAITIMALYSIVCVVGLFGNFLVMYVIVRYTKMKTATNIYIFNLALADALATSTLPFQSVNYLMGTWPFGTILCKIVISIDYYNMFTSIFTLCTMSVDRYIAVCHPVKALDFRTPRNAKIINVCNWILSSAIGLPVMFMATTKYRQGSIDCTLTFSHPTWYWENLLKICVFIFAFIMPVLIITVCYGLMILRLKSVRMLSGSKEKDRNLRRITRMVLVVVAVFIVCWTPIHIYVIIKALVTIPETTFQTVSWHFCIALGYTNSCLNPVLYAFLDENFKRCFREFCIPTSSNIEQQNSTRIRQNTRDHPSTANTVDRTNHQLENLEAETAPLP
T5 sequence (P41968 whole entry): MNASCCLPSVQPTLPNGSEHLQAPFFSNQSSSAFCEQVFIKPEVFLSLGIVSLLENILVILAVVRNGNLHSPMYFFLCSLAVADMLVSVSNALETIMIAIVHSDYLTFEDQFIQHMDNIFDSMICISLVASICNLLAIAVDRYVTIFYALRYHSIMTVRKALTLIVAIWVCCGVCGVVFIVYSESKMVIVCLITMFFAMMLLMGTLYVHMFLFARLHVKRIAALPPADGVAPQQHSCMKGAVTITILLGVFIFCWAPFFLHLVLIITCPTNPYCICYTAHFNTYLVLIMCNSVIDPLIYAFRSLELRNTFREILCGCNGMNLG
T6 sequence (Q99705 whole entry): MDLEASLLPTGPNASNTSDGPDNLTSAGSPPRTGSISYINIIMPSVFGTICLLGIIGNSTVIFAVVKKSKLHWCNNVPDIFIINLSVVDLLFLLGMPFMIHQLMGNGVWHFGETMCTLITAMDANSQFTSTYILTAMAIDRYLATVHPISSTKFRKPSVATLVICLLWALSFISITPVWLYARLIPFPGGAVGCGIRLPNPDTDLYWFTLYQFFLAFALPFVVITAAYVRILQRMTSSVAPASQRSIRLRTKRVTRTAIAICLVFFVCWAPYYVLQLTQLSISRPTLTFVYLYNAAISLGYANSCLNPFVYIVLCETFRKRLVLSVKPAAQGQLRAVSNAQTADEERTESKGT
T10 sequence (P33032 whole entry): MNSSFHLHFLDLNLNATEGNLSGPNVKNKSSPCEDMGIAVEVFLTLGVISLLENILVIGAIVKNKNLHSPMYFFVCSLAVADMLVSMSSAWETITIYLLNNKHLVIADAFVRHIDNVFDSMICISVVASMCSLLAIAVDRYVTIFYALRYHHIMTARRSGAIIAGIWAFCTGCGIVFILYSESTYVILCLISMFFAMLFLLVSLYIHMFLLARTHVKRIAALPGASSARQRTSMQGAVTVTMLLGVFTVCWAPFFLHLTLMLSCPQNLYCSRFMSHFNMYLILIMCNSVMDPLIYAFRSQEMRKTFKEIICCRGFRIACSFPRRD
T11 sequence (P25103 whole entry): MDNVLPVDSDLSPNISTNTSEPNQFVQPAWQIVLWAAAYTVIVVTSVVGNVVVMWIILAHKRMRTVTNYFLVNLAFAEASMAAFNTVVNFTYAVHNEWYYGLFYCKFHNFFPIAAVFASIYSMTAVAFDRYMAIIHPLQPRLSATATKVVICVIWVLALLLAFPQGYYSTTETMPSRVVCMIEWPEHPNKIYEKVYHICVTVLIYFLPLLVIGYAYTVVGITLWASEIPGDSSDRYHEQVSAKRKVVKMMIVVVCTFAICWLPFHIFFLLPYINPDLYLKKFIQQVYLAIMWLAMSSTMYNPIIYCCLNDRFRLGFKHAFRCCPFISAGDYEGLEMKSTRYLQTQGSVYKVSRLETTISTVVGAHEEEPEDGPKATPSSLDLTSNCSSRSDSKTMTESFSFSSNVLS
T9 sequence (P32245 whole entry): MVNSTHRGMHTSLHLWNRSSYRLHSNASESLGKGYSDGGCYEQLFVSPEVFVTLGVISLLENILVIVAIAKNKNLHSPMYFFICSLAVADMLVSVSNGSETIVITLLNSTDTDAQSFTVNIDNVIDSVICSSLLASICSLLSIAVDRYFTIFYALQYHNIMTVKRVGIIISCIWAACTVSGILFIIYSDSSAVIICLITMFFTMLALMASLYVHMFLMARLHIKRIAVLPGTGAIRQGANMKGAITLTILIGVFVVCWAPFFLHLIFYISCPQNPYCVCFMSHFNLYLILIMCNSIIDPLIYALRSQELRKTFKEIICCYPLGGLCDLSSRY
T3 sequence (P41146 whole entry): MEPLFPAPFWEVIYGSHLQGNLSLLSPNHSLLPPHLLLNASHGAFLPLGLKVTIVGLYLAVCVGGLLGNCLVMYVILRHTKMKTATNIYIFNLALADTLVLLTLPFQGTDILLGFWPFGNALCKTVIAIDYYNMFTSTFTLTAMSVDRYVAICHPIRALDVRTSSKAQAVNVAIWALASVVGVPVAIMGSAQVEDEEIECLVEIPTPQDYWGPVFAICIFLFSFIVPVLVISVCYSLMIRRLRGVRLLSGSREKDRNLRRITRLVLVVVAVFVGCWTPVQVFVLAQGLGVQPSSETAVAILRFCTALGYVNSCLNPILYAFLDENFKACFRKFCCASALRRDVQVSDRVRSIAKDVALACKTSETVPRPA

SMILES	A2 radioligand binding inhibition (Human κ-Opioid (KOP))	A11 radioligand binding inhibition (Mouse urotensin (mUR2))	A10 radioligand binding inhibition (Human opioid (ORL1))	A1 radioligand binding inhibition (Human δ-opioid (DOP))	A3 radioligand binding inhibition (Human Melanocortin (MC3))	A6 radioligand binding inhibition [1]	A7 radioligand binding inhibition (Human μ-opioid (MOP))	A9 radioligand binding inhibition [2]	A4 radioligand binding inhibition (Human Melanocortin (MC4))	A5 radioligand binding inhibition (Human melanocortin (MC5))	A8 radioligand binding inhibition (Human neurokinin (NK1))	A2: inhibition of radioligand binding (Human κ-Opioid (KOP); [3H]-Diprenorphine)	A11: inhibition of radioligand binding (Mouse urotensin (mUR2); [125I]-Urotensin II)	A10: inhibition of radioligand binding (Human opioid (ORL1); [125I]-Nociceptin)	A1: inhibition of radioligand binding (Human δ-opioid (DOP); [3H]-Bremazocine)	A3: inhibition of radioligand binding (Human Melanocortin (MC3); [125I]-NDP-αMSH)	A6: inhibition of radioligand binding [1]	A7: inhibition of radioligand binding (Human μ-opioid (MOP); [3H]-Naloxone)	A9: inhibition of radioligand binding ([2]; [125I]-PYY)	A4: inhibition of radioligand binding (Human Melanocortin (MC4); [125I]-NDP-αMSH)	further results
CO[C@H]1[C@H](O)[C@@H](COCc2ccccc2)OC(OCc2ccc3ccccc3c2)[C@@H]1NC(=O)CNC(=N)N (stereo partly drawn) [compound 74]	− (“−” indicates less than 50% inhibition at 10 μM)	− (“−” indicates less than 50% inhibition at 10 μM)	− (“−” indicates less than 50% inhibition at 10 μM)	− (“−” indicates less than 50% inhibition at 10 μM)	− (“−” indicates less than 50% inhibition at 10 μM)	− (“−” indicates less than 50% inhibition at 10 μM)	+ (“+” indicates greater than 50% inhibition at 10 μM)	− (“−” indicates less than 50% inhibition at 10 μM)	− (“−” indicates less than 50% inhibition at 10 μM)	+ (“+” indicates greater than 50% inhibition at 10 μM)	+ (“+” indicates greater than 50% inhibition at 10 μM)	–	–	–	–	–	–	–	–	–	–
CO[C@H]1[C@H](O)[C@@H](COCc2ccc3ccccc3c2)OC(OCc2ccc(-c3ccccc3)cc2)[C@@H]1NC(=O)CNC(=N)N (stereo partly drawn) [compound 55]	+ (“+” indicates greater than 50% inhibition at 10 μM)	− (“−” indicates less than 50% inhibition at 10 μM)	+ (“+” indicates greater than 50% inhibition at 10 μM)	− (“−” indicates less than 50% inhibition at 10 μM)	+ (“+” indicates greater than 50% inhibition at 10 μM)	+ (“+” indicates greater than 50% inhibition at 10 μM)	+ (“+” indicates greater than 50% inhibition at 10 μM)	− (“−” indicates less than 50% inhibition at 10 μM)	+ (“+” indicates greater than 50% inhibition at 10 μM)	+ (“+” indicates greater than 50% inhibition at 10 μM)	+ (“+” indicates greater than 50% inhibition at 10 μM)	–	–	–	–	–	–	–	–	–	–
CSC1OC(COCc2ccc(Cl)cc2)C(O)C(OCc2ccccc2)C1NC(=O)CCNC(=N)N (stereo not drawn) [compound 254]	–	–	–	–	–	–	–	–	–	–	–	− (“−” indicates less than 50% inhibition at 10 μM)	− (“−” indicates less than 50% inhibition at 10 μM)	− (“−” indicates less than 50% inhibition at 10 μM)	− (“−” indicates less than 50% inhibition at 10 μM)	− (“−” indicates less than 50% inhibition at 10 μM)	− (“−” indicates less than 50% inhibition at 10 μM)	− (“−” indicates less than 50% inhibition at 10 μM)	− (“−” indicates less than 50% inhibition at 10 μM)	− (“−” indicates less than 50% inhibition at 10 μM)	A5: inhibition of radioligand binding (Human melanocortin (MC5); [125I]-NDP-αMSH): − (“−” indicates less than 50% inhibition at 10 μM); A8: inhibition of radioligand binding (Human neurokinin (NK1); [125I]-Substance P): + (“+” indicates greater than 50% inhibition at 10 μM)
CSC1OC(COCc2ccc(-c3ccccc3)cc2)C(O)C(OCc2ccccc2)C1NC(=O)CCCN (stereo not drawn) [compound 258]	–	–	–	–	–	–	–	–	–	–	–	− (“−” indicates less than 50% inhibition at 10 μM)	− (“−” indicates less than 50% inhibition at 10 μM)	− (“−” indicates less than 50% inhibition at 10 μM)	− (“−” indicates less than 50% inhibition at 10 μM)	− (“−” indicates less than 50% inhibition at 10 μM)	− (“−” indicates less than 50% inhibition at 10 μM)	− (“−” indicates less than 50% inhibition at 10 μM)	− (“−” indicates less than 50% inhibition at 10 μM)	− (“−” indicates less than 50% inhibition at 10 μM)	A5: inhibition of radioligand binding (Human melanocortin (MC5); [125I]-NDP-αMSH): − (“−” indicates less than 50% inhibition at 10 μM); A8: inhibition of radioligand binding (Human neurokinin (NK1); [125I]-Substance P): + (“+” indicates greater than 50% inhibition at 10 μM)
N=C(N)NCCC(=O)N[C@H]1C(OCc2ccc(Cl)cc2)O[C@H](COCc2ccccc2)[C@@H](O)[C@@H]1OCc1ccc2ccccc2c1 (stereo partly drawn) [compound 531]	–	–	–	–	–	–	–	–	–	–	–	–	–	–	–	–	–	–	–	–	A2: inhibition of radioligand binding, human κ-opioid (KOP) (Human κ-Opioid (KOP); [3H]-Diprenorphine): + (“+” indicates greater than 50% inhibition at 10 μM); A11: inhibition of radioligand binding, mouse urotensin (mUR2) (Mouse urotensin (mUR2); [125I]-Urotensin II): − (“−” indicates less than 50% inhibition at 10 μM); A10: inhibition of radioligand binding, human opioid (ORL1) (Human opioid (ORL1); [125I]-Nociceptin): + (“+” indicates greater than 50% inhibition at 10 μM); A1: inhibition of radioligand binding, human δ-opioid (DOP) (Human δ-opioid (DOP); [3H]-Bremazocine): − (“−” indicates less than 50% inhibition at 10 μM); A3: inhibition of radioligand binding, human melanocortin (MC3) (Human Melanocortin (MC3); [125I]-NDP-αMSH): + (“+” indicates greater than 50% inhibition at 10 μM); A6: inhibition of radioligand binding, human melanin-concentrating hormone (MCH1) ([1]; [125I]-S36057): + (“+” indicates greater than 50% inhibition at 10 μM); A7: inhibition of radioligand binding, human μ-opioid (MOP) (Human μ-opioid (MOP); [3H]-Naloxone): + (“+” indicates greater than 50% inhibition at 10 μM); A9: inhibition of radioligand binding, human neuropeptide Y (NPY-Y1) ([2]; [125I]-PYY): − (“−” indicates less than 50% inhibition at 10 μM); A4: inhibition of radioligand binding, human melanocortin (MC4) (Human Melanocortin (MC4); [125I]-NDP-αMSH): + (“+” indicates greater than 50% inhibition at 10 μM); A5: inhibition of radioligand binding, human melanocortin (MC5) (Human melanocortin (MC5); [125I]-NDP-αMSH): + (“+” indicates greater than 50% inhibition at 10 μM); A8: inhibition of radioligand binding, human neurokinin (NK1) (Human neurokinin (NK1); [125I]-Substance P): + (“+” indicates greater than 50% inhibition at 10 μM)
COC[C@H]1OC(OCc2ccc(Cl)cc2)[C@H](NC(=O)CCCN)[C@@H](OCc2ccccc2)[C@@H]1O (stereo partly drawn) [compound 35]	− (“−” indicates less than 50% inhibition at 10 μM)	− (“−” indicates less than 50% inhibition at 10 μM)	− (“−” indicates less than 50% inhibition at 10 μM)	− (“−” indicates less than 50% inhibition at 10 μM)	− (“−” indicates less than 50% inhibition at 10 μM)	− (“−” indicates less than 50% inhibition at 10 μM)	− (“−” indicates less than 50% inhibition at 10 μM)	− (“−” indicates less than 50% inhibition at 10 μM)	− (“−” indicates less than 50% inhibition at 10 μM)	− (“−” indicates less than 50% inhibition at 10 μM)	+ (“+” indicates greater than 50% inhibition at 10 μM)	–	–	–	–	–	–	–	–	–	–
